Blank lines part the entries; values can stand above or below the compound they belong to.
Assays:
[1] = target: T1, cGMP-dependent protein kinase 2 (Homo sapiens) (UniProt Q13237); experiment: Selectivity interaction (KinomeScan (DiscoverX)) EUB0001049a PRKG2; settings: at 1 µM
T1 sequence (whole entry): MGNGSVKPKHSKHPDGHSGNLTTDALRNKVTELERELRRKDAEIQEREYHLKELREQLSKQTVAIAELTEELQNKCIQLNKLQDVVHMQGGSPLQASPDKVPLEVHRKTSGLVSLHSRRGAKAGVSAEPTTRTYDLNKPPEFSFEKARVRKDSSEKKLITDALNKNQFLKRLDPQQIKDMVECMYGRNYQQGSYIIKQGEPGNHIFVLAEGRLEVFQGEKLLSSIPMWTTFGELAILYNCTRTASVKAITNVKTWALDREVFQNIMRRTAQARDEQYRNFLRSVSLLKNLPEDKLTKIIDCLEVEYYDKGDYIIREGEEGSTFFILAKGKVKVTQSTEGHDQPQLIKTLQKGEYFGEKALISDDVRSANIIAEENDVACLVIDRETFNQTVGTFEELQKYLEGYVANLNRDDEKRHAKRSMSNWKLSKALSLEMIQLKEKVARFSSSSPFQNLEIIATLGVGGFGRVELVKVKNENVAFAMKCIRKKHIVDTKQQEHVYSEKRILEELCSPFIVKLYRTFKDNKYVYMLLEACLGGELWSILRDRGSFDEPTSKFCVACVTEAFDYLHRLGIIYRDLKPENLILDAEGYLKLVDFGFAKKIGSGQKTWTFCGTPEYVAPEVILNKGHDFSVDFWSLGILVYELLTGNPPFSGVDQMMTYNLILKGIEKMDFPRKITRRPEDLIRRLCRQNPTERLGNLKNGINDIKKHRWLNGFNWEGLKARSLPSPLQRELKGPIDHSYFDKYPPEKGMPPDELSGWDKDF

[2] = target: Cyclin-dependent kinase 9 (Homo sapiens, UniProt P50750); experiment: Selectivity interaction (KinomeScan (DiscoverX)) EUB0000229b CDK9; settings: at 10 µM
[3] = target: Vascular endothelial growth factor receptor 2 (Homo sapiens, UniProt P35968); experiment: Selectivity interaction (ProQinase) EUB0000171b KDR
[4] = target: T2, Tyrosine-protein kinase ZAP-70 (Homo sapiens) (UniProt P43403); experiment: Selectivity interaction (KinomeScan (DiscoverX)) EUB0000092b ZAP70; settings: at 10 µM
T2 sequence (whole entry): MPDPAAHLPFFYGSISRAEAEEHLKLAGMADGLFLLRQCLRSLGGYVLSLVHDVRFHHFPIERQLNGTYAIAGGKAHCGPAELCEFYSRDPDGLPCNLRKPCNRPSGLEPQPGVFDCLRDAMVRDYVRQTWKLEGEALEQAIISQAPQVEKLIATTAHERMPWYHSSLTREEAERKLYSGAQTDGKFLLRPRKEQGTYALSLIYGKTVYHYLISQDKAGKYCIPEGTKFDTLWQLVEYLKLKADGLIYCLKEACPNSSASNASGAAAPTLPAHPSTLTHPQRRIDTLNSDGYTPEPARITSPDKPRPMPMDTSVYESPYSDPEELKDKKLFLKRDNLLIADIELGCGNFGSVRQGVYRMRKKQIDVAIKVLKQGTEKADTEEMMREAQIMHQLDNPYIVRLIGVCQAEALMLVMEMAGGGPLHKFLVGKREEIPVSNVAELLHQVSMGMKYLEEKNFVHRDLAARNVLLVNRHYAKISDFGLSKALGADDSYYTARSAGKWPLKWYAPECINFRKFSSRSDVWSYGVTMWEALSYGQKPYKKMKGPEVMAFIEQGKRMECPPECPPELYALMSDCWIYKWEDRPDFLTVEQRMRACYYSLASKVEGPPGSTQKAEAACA

[5] = target: T3, MAP kinase-activated protein kinase 5 (Homo sapiens) (UniProt Q8IW41); experiment: Selectivity interaction (Upstate Kinase Profiler service (Millipore)) EUB0000056c MAPKAPK5; settings: at 1 µM
T3 sequence (whole entry): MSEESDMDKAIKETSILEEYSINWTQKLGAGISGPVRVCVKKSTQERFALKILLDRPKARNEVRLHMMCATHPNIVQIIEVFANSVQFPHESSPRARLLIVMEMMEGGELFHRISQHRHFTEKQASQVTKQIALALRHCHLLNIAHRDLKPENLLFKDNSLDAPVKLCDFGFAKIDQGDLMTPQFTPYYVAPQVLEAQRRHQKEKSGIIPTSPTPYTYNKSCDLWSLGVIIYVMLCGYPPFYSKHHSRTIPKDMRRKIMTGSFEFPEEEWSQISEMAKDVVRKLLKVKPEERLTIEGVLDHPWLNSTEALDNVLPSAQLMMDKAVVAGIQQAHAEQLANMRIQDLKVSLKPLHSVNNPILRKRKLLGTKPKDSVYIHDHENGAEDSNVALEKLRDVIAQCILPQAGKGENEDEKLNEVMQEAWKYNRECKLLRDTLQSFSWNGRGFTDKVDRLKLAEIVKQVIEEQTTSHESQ

Vascular endothelial growth factor receptor 2, sequence (P35968 whole entry): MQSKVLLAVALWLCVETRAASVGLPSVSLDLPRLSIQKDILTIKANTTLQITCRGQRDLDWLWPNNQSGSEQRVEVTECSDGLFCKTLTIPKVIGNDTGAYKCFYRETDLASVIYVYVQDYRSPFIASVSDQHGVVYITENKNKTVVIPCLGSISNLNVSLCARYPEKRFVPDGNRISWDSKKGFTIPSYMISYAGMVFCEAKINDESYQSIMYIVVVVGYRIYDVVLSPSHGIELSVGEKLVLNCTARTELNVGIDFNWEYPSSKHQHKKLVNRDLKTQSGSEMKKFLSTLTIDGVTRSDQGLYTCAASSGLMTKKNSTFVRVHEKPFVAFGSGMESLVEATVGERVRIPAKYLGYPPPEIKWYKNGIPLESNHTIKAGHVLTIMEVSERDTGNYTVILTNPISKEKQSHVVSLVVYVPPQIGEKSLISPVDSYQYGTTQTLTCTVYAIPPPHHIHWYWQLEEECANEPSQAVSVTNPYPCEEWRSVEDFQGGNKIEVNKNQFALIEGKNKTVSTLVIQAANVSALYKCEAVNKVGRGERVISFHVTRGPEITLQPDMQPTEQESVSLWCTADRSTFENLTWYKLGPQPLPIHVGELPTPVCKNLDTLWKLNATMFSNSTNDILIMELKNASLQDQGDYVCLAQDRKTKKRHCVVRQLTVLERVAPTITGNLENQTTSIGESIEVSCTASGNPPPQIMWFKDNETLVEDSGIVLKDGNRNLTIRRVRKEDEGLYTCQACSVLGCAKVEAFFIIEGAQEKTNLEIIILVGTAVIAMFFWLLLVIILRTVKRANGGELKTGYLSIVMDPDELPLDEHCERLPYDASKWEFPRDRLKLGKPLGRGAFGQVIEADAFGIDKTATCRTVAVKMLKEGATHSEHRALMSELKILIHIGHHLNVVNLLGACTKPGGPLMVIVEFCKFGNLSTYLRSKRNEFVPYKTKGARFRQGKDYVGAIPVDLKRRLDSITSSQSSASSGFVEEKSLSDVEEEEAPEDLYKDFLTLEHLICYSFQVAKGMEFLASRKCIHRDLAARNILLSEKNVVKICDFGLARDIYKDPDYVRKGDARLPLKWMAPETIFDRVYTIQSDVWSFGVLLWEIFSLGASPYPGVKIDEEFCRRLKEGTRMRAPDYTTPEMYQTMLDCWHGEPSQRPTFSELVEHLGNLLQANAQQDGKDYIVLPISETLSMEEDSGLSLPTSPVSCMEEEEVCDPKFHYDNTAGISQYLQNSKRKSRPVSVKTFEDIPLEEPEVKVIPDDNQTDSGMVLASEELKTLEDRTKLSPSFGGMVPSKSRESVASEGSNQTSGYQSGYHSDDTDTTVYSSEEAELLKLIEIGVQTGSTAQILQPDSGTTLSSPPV
Cyclin-dependent kinase 9, sequence (P50750 whole entry): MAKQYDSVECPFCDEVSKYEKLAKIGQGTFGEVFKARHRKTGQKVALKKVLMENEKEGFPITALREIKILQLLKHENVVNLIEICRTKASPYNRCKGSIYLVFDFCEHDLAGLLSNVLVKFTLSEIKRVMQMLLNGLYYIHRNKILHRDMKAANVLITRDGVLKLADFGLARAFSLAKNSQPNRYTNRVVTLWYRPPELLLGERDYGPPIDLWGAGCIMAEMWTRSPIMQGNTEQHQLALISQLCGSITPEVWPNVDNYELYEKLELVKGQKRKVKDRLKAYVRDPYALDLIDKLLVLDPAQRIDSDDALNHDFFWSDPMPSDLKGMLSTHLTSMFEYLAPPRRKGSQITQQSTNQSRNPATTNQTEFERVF

Structure (SMILES): COc1cc(Nc2nc(C)cc(-c3cnn4nc(OC)ccc34)n2)cc(C(F)(F)F)c1
% of control [1]: 70%

Structure (SMILES): COc1cc(N(C)c2ccnc3ccc(C(F)(F)F)cc23)cc(OC)c1OC
% binding [2]: 81%

% of control ([3]; at 1 µM): 78% | % of control ([3]; at 5 µM): 50%
Structure (SMILES): C=CC(=O)Nc1cccc(C(=O)Nc2ccc(Nc3cc(-c4[nH]c(SC)nc4C)ccn3)cc2)c1

Structure (SMILES): CCC(=O)N1CCN(c2ccc(-n3c(=O)ccc4cnc5ccc(-c6cnc7ccccc7c6)cc5c43)cc2C(F)(F)F)CC1
% of control [4]: 100%

% of inhibition [5]: 99%
Structure (SMILES): Cc1ccc(-c2ccc3c(ccc4sc5c(c43)NC[C@@H](C)NC5=O)n2)cn1

From ChEMBL document CHEMBL5465560, “Selectivity Literature for EUbOPEN Chemogenomic Library” (2024)
